PMC6265310, “Purification, Characterization and in vitro Evaluation of Polymyxin A From Paenibacillus dendritiformis: An Underexplored Member of the Polymyxin Family” (Frontiers in Microbiology, 2018)
Values after ≈ are worked out from the molar mass of the structure shown. Where a SMILES comes first, the peptide text is derived from it. Bridges are numbered along the chain shown (N, C = ends). [ ]: non-standard residue; d: D form. The star is where a group is joined. Heptanoyl(6-Me) = CC(C)CCCCC(=O)*; dDab = NCC[C@@H](N)C(=O)O; Dab = NCC[C@H](N)C(=O)O

Legend:
[1] = system: Klebsiella pneumoniae ATCC- BAA 2146; settings: BAA 2146
[2] = system: E. coli 14363; settings: 14363
[3] = system: Klebsiella pneumoniae ATCC BAA1706; settings: ATCC BAA1706
[4] = system: P. aeruginosa PA5; settings: PA5
[5] = system: A. baumannii AB1; settings: AB1
[6] = system: Staphylococcus aureus ATCC 25923; settings: ATCC 25923
[7] = system: E. coli 7534; settings: 7534
[8] = system: clinical MDR isolates (E. coli, K. pneumoniae, A. baumanii, P. aeruginosa); format: cell-based; settings: in 25 of 31 clinical isolates
[9] = system: Enterococcus faecalis ATCC 51299; settings: ATCC 51299
[10] = system: E. coli ATCC 25922; experiment: NPN uptake assay, outer membrane permeabilization; format: cell-based; settings: E. coli ATCC 25922, 10 and 20 μg/ml, 1 h, compared with polymyxin B
[11] = system: Klebsiella pneumoniae ATCC 29665; settings: ATCC 29665
[12] = system: E. coli 7932; settings: 7932
[13] = system: K. Pneumoniae GMCH11; settings: GMCH11
[14] = system: P. aeruginosa PA6; settings: PA6
[15] = system: A. baumannii AB2; settings: AB2
[16] = system: E. coli 14504; settings: 14504
[17] = system: P. aeruginosa PA3; settings: PA3
[18] = system: Acinetobacter baumannii ATCC 19606; settings: ATCC 19606
[19] = system: K. Pneumoniae 1428; settings: 1428
[20] = system: E. coli 14084; settings: 14084
[21] = system: A. baumannii GMCH05; settings: GMCH05
[22] = system: A. baumannii GMCH18; settings: GMCH18
[23] = system: P. aeruginosa GMCH06; settings: GMCH06
[24] = system: Klebsiella pneumoniae ATCC 700603; settings: ATCC 700603
[25] = system: K. Pneumoniae GMCH 16; settings: GMCH 16
[26] = system: Vibrio cholerae MTCC 3906
[27] = system: E. coli 13425; settings: 13425
[28] = system: Escherichia coli ATCC 35218; settings: ATCC 35218
[29] = system: K. Pneumoniae GMCH10; settings: GMCH10
[30] = system: P. aeruginosa PA2; settings: PA2
[31] = system: E. coli 9062; settings: 9062
[32] = system: Escherichia coli ATCC 25922; settings: ATCC 25922
[33] = system: K. Pneumoniae GMCH04; settings: GMCH04
[34] = system: P. aeruginosa ATCC 27853; experiment: Time-kill kinetics; format: cell-based; settings: P. aeruginosa ATCC 27853, 2xMIC
[35] = system: P. aeruginosa PA1; settings: PA1
[36] = system: K. Pneumoniae 1573; settings: 1573
[37] = system: K. Pneumoniae B8; settings: B8
[38] = system: E. coli 3185; settings: 3185
[39] = system: A. baumannii GMCH 14; settings: GMCH 14
[40] = system: E. coli 7210; settings: 7210
[41] = system: human embryonic kidney cell line (HEK293 ATCC CRL-1573); format: cell-based
Procedure: (§1) 3-(4,5-dimethylthiazol-2-yl)-2,5-diphenyltetrazolium bromide (MTT) assay was employed to examine the cytotoxicity against human leukemic monocyte cell line (THP-1 ATCC TIB-202) and human embryonic kidney cell line (HEK293 ATCC CRL-1573) as explained by [Kaur et al. (2017)]. Toxicity of both compounds was compared with polymyxin B and colistin at concentrations ranging from 62.5 to1000 μg/ml.

[42] = system: human leukemic monocyte cell line (THP-1 ATCC TIB-202); format: cell-based
Procedure: as §1

[43] = system: P. aeruginosa PA4; settings: PA4
[44] = system: K. Pneumoniae GMCH13; settings: GMCH13
[45] = system: Pseudomonas aeruginosa ATCC 27853; settings: ATCC 27853
[46] = system: K. Pneumoniae 827; settings: 827
[47] = system: Bacillus subtilis ATCC 6633; settings: ATCC 6633
[48] = system: K. Pneumoniae GMCH12; settings: GMCH12
[49] = system: Vibrio parahaemolyticus ATCC17802

For `CC(C)CCCCC(=O)N[C@@H](CCN)C(=O)N[C@H](C(=O)N[C@H](CCN)C(=O)N[C@H]1CCNC(=O)[C@H]([C@@H](C)O)NC(=O)[C@H](CCN)NC(=O)[C@H](CCN)NC(=O)[C@H]([C@@H](C)O)NC(=O)[C@@H](CC(C)C)NC(=O)[C@H](CCN)NC1=O)[C@@H](C)O` [P1, polymyxin A2] ({Heptanoyl(6-Me)}-[Dab]T[dDab][Dab][Dab][dL]T[Dab][Dab]T; lactam 4-C), the MIC [1] was 0.5 µg/mL (≈ 0.437 µM), the MIC [2] was 0.25 µg/mL (≈ 0.219 µM) and the MIC [3] was 0.5 µg/mL (≈ 0.437 µM). The MIC [4] was 1 µg/mL (≈ 0.875 µM), the MIC [5] was 0.5 µg/mL (≈ 0.437 µM) and the MIC [6] was greater than 16 µg/mL. The MIC [7] was 0.25 µg/mL (≈ 0.219 µM), the “fold less MIC than the other polymyxins” value [8] was 2–4 fold and the MIC [9] was greater than 16 µg/mL. For the same compound, the “NPN uptake (fluorescence intensity)” value [10] was “slightly higher NPN uptake”, the MIC [11] was 0.5 µg/mL (≈ 0.437 µM) and the MIC [12] was 0.25 µg/mL (≈ 0.219 µM). The MIC [13] was 1 µg/mL (≈ 0.875 µM), the MIC [14] was 1 µg/mL (≈ 0.875 µM) and the MIC [15] was 1 µg/mL (≈ 0.875 µM). The MIC [16] was 0.25 µg/mL (≈ 0.219 µM), the MIC [17] was 1 µg/mL (≈ 0.875 µM) and the MIC [18] was 0.5 µg/mL (≈ 0.437 µM). The MIC [19] was 1 µg/mL (≈ 0.875 µM), the MIC [20] was 0.25 µg/mL (≈ 0.219 µM) and the MIC [21] was 1 µg/mL (≈ 0.875 µM). The MIC [22] was 0.25 µg/mL (≈ 0.219 µM), the MIC [23] was 0.5 µg/mL (≈ 0.437 µM) and the MIC [24] was 1 µg/mL (≈ 0.875 µM). For the same compound, the MIC [25] was 0.5 µg/mL (≈ 0.437 µM), the MIC [26] was greater than 16 µg/mL and the MIC [27] was 0.25 µg/mL (≈ 0.219 µM). For the same compound, the MIC [28] was 0.25 µg/mL (≈ 0.219 µM), the MIC [29] was 1 µg/mL (≈ 0.875 µM) and the MIC [30] was 1 µg/mL (≈ 0.875 µM). It also gave an MIC [31] of 0.25 µg/mL (≈ 0.219 µM), an MIC [32] of 1 µg/mL (≈ 0.875 µM) and an MIC [33] of 0.25 µg/mL (≈ 0.219 µM). It also gave a time to kill [34] of 4 h, an MIC [35] of 1 µg/mL (≈ 0.875 µM) and an MIC [36] of 0.5 µg/mL (≈ 0.437 µM). For the same compound, the MIC [37] was 0.5 µg/mL (≈ 0.437 µM), the MIC [38] was 0.25 µg/mL (≈ 0.219 µM) and the MIC [39] was 0.5 µg/mL (≈ 0.437 µM). For the same compound, the MIC [40] was 0.25 µg/mL (≈ 0.219 µM), the IC50 [41] was greater than 1000 µg/mL and the IC50 [42] was “approximately 1000 μg/ml”. It also gave an MIC [43] of 1 µg/mL (≈ 0.875 µM), an MIC [44] of 0.5 µg/mL (≈ 0.437 µM) and an MIC [45] of 0.5 µg/mL (≈ 0.437 µM). For the same compound, the MIC [46] was 0.5 µg/mL (≈ 0.437 µM), the MIC [47] was 16 µg/mL (≈ 14 µM) and the MIC [48] was 0.5 µg/mL (≈ 0.437 µM). It also gave an MIC [49] of 1 µg/mL (≈ 0.875 µM).
